Experimental data from US20230150970A1, “AMINOPYRIMIDINE DERIVATIVES AND THEIR USE AS ARYL HYDROCARBON RECEPTOR MODULATORS” (DONG-A ST CO., LTD., priority 2020, published 2023).
Read-outs that look alike come from different tables or passages of the source.

Key:
AhR [1] = target: T1, AhR (Mus musculus, UniProt P30561); assay: In Vitro Assay 2: XRE-luciferase reporter assay, antagonism in mouse cell line (Hepa1c1c7); format: cell-based; details: 6 hours, read-out: Assay 2: AhR-Luc Mouse Antagonism (IC50)
T1 sequence (P30561 1-848): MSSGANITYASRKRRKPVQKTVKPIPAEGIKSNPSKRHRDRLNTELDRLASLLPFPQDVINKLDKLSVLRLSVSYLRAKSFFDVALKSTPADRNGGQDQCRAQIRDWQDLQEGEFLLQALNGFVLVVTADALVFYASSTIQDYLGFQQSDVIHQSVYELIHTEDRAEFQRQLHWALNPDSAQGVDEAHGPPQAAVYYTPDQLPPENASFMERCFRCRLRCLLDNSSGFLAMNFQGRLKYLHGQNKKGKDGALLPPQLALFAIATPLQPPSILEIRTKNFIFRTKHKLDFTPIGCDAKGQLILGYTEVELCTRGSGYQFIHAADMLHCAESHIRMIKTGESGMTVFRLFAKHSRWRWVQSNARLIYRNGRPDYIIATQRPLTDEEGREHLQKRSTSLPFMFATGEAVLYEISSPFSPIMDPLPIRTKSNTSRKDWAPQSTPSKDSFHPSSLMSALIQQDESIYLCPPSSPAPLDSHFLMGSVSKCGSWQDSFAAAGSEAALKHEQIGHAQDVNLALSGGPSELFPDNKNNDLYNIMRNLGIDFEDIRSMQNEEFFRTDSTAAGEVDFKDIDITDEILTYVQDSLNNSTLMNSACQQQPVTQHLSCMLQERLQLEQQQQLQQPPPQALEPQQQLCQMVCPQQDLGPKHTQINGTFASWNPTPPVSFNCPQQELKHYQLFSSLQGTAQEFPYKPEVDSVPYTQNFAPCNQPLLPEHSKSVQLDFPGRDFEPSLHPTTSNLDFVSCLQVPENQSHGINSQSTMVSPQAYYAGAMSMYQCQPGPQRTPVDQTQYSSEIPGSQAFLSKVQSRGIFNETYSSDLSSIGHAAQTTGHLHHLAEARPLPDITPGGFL
Experimental: In Vitro Assay 2: Antagonism in Mouse Cell Line
Hepa1c1c7 (murine liver cancer cell line) cells co-transfected with XRE-Luc and Nano-Luc plasmids were plated in complete medium and incubated overnight at 37° C. in a CO2 incubator. Following incubation, cells were treated with AhR activating ligands such as kynurenic acid, kynurenine (#) with or without test compounds for 6 hours.

AhR [2] = target: T2, AhR (Homo sapiens, UniProt P35869); assay: In Vitro Assay 1: XRE-luciferase reporter assay, antagonism in human cell line (HepG2)
T2 sequence (P35869 11-848): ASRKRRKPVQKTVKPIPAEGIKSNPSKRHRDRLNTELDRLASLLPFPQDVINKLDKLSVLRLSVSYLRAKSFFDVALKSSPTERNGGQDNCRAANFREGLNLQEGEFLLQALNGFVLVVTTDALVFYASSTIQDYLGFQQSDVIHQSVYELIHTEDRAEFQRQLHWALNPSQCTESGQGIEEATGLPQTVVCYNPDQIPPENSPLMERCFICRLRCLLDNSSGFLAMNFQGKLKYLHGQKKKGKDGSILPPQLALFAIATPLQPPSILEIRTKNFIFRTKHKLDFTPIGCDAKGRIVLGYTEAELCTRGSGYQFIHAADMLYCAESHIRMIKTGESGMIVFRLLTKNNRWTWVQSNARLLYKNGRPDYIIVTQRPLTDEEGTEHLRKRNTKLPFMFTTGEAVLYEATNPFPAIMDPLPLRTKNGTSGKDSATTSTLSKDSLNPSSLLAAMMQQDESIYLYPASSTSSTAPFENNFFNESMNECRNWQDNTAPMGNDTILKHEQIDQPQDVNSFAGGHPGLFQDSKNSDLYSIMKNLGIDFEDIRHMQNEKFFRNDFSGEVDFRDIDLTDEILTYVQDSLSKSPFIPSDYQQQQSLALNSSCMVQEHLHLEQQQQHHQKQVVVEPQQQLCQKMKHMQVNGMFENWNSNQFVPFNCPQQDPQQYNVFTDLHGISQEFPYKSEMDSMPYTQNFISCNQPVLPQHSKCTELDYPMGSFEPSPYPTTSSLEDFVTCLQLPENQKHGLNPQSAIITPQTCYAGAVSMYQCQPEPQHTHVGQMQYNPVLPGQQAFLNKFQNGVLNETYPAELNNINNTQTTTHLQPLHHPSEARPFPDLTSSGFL

AhR [3] = target: T2, AhR; assay: In Vitro Assay 3: XRE-luciferase reporter assay, agonism in human cell line (HepG2); format: cell-based; parameters: endogenous in cells; host or cells: HepG2; details: HepG2, tryptophan free medium, 6 hours, no agonist, read-out: Assay 3: AhR-Luc Human Agonism (EC50)
Experimental: In Vitro Assay 3: Agonism in Human Cell Line
HepG2 (human hepatoma cell line) cells co-transfected with XRE-Luc and Nano-Luc plasmids were plated in tryptophan free medium containing 1% of dialyzed fetal bovine serum and incubated overnight at 37° C. in a CO2 incubator. After 24 hours, cells were treated for 6 hours with test compounds or not. […] As a positive control, cells were incubated with TCDD.

AhR [4] = target: T2, AhR; assay: In Vitro Assay 4: endogenous AhR activity assay (CYP1A1 and CYP1B1 mRNA, qRT-PCR, HepG2 cells)
Experimental: In Vitro Assay 4: Endogenous AhR Activity Assay
HepG2 cells were seeded in 12-well plate (3×10^5 cells/well). A day after seeding, the cells were treated with TCDD (10 nM) alone or with compounds (123 nM) for 4 hours. Total RNA was extracted using Trizol (Thermo Fisher Scientific). cDNA synthesis and quantitative RT-PCR (qRT-PCR) assays were performed using PrimeScript™ RT Master Mix (TAKARA) and TB Green™ Premix Ex Taq™ II (TAKARA) in accordance with manufacturer's instruction. For the measurement of endogenous AhR activity, relative mRNA levels of CYP1A1 and CYP1B1 were quantitated relative to β-actin mRNA by the comparative Ct (ΔΔCt) method. The percent inhibitions were calculated according to:

[5] = values marked #: AhR activating ligand kynurenine
[6] = Assay 1: AhR-Luc Human Antagonism (IC50, nM), unmarked values: kynurenine 200 μM, 6 hours
[7] = HepG2, read-out: CYP1A1 (% Inhibition)
[8] = HepG2, read-out: CYP1B1 (% Inhibition)
[9] = Assay 1: AhR-Luc Human Antagonism (IC50, nM), values marked *: kynurenine 50 μM, 6 hours
[10] = unmarked values: AhR activating ligand kynurenic acid

Molecule | IC50 (AhR [1]; [5]) | IC50 (AhR [2]; [6]) | EC50 (AhR [3]; class in brackets of the cell) | EC50 (AhR [3]; number of the cell) | inhibition at 0.123 µM (AhR [4]; [7]) | inhibition at 0.123 µM (AhR [4]; [8]) | IC50 (AhR [2]; [9]) | IC50 (AhR [1]; [10]) | IC50 (AhR [2]; read-out: Assay 1: AhR-Luc Human Antagonism (IC50), values marked *: kynurenine 50 μM, 6 hours) | IC50 (AhR [2]; read-out: Assay 1: AhR-Luc Human Antagonism (IC50), unmarked values: kynurenine 200 μM, 6 hours)
O[C@H]1CCN(c2cc(-c3ccc(Cl)cc3)nc(-c3cncc(F)c3)n2)C1 [Example 323, (S)-1-(6-(4-chlorophenyl)-2-(5-fluoropyridin-3-yl)pyrimidin-4-yl)pyrrolidin-3-ol] | 10 to 100 nM | < 10 nM | > 10000 nM | > 30000 nM | 108% | 99.8% |  |  |  | 
CC(=O)N1CCC(CNc2cc(-c3ccc(Cl)cc3)nc(-c3cccnc3)n2)CC1 [Example 154, 1-(4-(((6-(4-chlorophenyl)-2-(pyridin-3-yl)pyrimidin-4-yl)amino)methyl)piperidin-1-yl)ethan-1-one] | 10 to 100 nM |  | > 10000 nM | > 30000 nM |  |  | < 10 nM |  |  | 
CC(=O)NC1CCN(c2cc(-c3ccc(Cl)cc3)nc(-c3cccnc3)n2)C1 (stereo not shown) [Example 143, N-(1-(6-(4-chlorophenyl)-2-(pyridin-3-yl)pyrimidin-4-yl)pyrrolidin-3-yl)acetamide] | 100 to 1000 nM |  | > 10000 nM | > 30000 nM |  |  | < 10 nM |  |  | 
Cc1ccc(-c2cc(N3CCC(CO)CC3)nc(-c3cccnc3)n2)cc1 [Example 229, (1-(2-(pyridin-3-yl)-6-(p-tolyl)pyrimidin-4-yl)piperidin-4-yl)methanol] |  | 10 to 100 nM | > 10000 nM | > 30000 nM | 108% | 101% |  |  |  | 
OC[C@H]1CN(c2cc(-c3ccc(C(F)(F)F)cc3)nc(-c3cccnc3)n2)CCO1 [Example 280, (R)-(4-(2-(pyridin-3-yl)-6-(4-(trifluoromethyl)phenyl)pyrimidin-4-yl)morpholin-2-yl)methanol] |  | < 10 nM |  |  |  |  |  | 10 to 100 nM |  | 
CC(=O)N[C@@H]1CN(c2cc(-c3ccc(Cl)cc3)nc(-c3cccnc3)n2)C[C@@H]1O [Example 243, N-((3R,4S)-1-(6-(4-chlorophenyl)-2-(pyridin-3-yl)pyrimidin-4-yl)-4-hydroxypyrrolidin-3-yl)acetamide] | 10 to 100 nM | < 10 nM |  |  | 89.7% |  |  |  |  | 
O[C@H]1CN(c2cc(-c3ccc(C(F)(F)F)cc3)nc(-c3cccnc3)n2)C[C@@H]1O [Example 283, (3S,4S)-1-(2-(pyridin-3-yl)-6-(4-(trifluoromethyl)phenyl)pyrimidin-4-yl)pyrrolidine-3,4-diol] |  | < 10 nM | > 10000 nM | > 30000 nM |  |  |  | 10 to 100 nM |  | 
CC(=O)N1CCCN(c2cc(-c3ccc(Cl)cc3)nc(-c3cccnc3)n2)C1 [Example 232, 1-(3-(6-(4-chlorophenyl)-2-(pyridin-3-yl)pyrimidin-4-yl)tetrahydropyrimidin-1 (2H)-yl)ethan-1-one] | > 1000 nM |  |  |  | 100% | 99.8% | < 10 nM |  |  | 
Cn1cc(-c2nc(-c3ccc(C(F)(F)F)cc3)cc(N3CC[C@@H](C(=O)O)C3)n2)cn1 [Example 312, (R)-1-(2-(1-methyl-1H-pyrazol-4-yl)-6-(4-(trifluoromethyl)phenyl)pyrimidin-4-yl)pyrrolidine-3-carboxylic acid] |  |  |  |  |  |  |  | > 1000 nM |  | 
OC[C@H]1CN(c2cc(-c3ccc(C(F)(F)F)cc3)nc(-c3cccnc3)n2)C[C@@H]1O [Example 258, (3R,4R)-4-(hydroxymethyl)-1-(2-(pyridin-3-yl)-6-(4-(trifluoromethyl)phenyl)pyrimidin-4-yl)pyrrolidin-3-ol] |  | < 10 nM |  |  | 101% |  |  | < 10 nM |  | 
OCC1CN(c2cc(-c3ccc(Cl)cc3)nc(-c3cccnc3)n2)CC1O (stereo not shown) [Example 236, 1-(6-(4-chlorophenyl)-2-(pyridin-3-yl)pyrimidin-4-yl)-4-(hydroxymethyl)pyrrolidin-3-ol] | 100 to 1000 nM |  |  | 40.1 nM |  |  | < 10 nM |  |  | 
CN1CCN(C2CCN(c3cc(-c4ccc(Cl)cc4)nc(-c4cccnc4)n3)CC2)CC1 [Example 92, 4-(4-chlorophenyl)-6-(4-(4-methylpiperazin-1-yl)piperidin-1-yl)-2-(pyridin-3-yl)pyrimidine] | 100 to 1000 nM |  | > 10000 nM | > 30000 nM |  |  | 10 to 100 nM |  |  | 
(3R,4R)-1-(6-(4-chlorophenyl)-2-(pyridin-3-yl)pyrimidin-4-yl)pyrrolidine-3,4-diol [Example 230] | 10 to 100 nM |  |  |  |  |  |  |  | 10 to 100 nM | 
OCC1CCN(c2cc(-c3ccc(Cl)cc3)nc(-c3cccnc3)n2)CC1 [Example 42, (1-(6-(4-chlorophenyl)-2-(pyridin-3-yl)pyrimidin-4-yl)piperidin-4-yl)methanol] |  |  |  |  | 98.8% | 99.3% | < 10 nM |  |  | 
OC[C@@H]1CCN(c2cc(-c3ccc(Cl)cc3)nc(-c3cccnc3)n2)C[C@H]1F [Example 282, ((3S,4S)-1-(6-(4-chlorophenyl)-2-(pyridin-3-yl)pyrimidin-4-yl)-3-fluoropiperidin-4-yl)methanol] |  | < 10 nM | > 10000 nM | > 30000 nM |  |  |  | 100 to 1000 nM |  | 
O[C@H]1CC[C@@H](Nc2cc(-c3ccc(Cl)cc3)nc(-c3cccnc3)n2)C1 [Example 162, (1S,3R)-3-((6-(4-chlorophenyl)-2-(pyridin-3-yl)pyrimidin-4-yl)amino)cyclopentan-1-ol] | 100 to 1000 nM |  | > 10000 nM | > 30000 nM |  |  | < 10 nM |  |  | 
CS(=O)(=O)N1CCN(c2cc(-c3ccc(Cl)cc3)nc(-c3cccnc3)n2)CC1 [Example 107, 4-(4-chlorophenyl)-6-(4-(methylsulfonyl)piperazin-1-yl)-2-(pyridin-3-yl)pyrimidine] | 10 to 100 nM | < 10 nM | > 10000 nM | > 30000 nM |  |  |  |  |  | 
(3R,4S)-1-(6-(4-chlorophenyl)-2-(pyridin-3-yl)pyrimidin-4-yl)pyrrolidine-3,4-diol [Example 231] | 10 to 100 nM |  | > 10000 nM | > 30000 nM |  |  |  |  |  | < 10 nM
